# Results from a melting point compilation (Tetko et al.; mined from patent text by program, amines drawn as free bases though some values may be those of a salt).
row,Structure (SMILES),melting point [°C]
1,CNC(=S)n1ncnc1N,184 to 185
2,COc1cc(CO)ccc1OCc1nc(-c2cccc(OS(C)(=O)=O)c2)oc1C,140 to 141
3,CCOC(=O)N1CCC(N2CCN(CC(=O)Nc3c(C)cccc3C)CC2)CC1Cc1ccc(Cl)c(Cl)c1 (centres undefined),101
4,NC(=O)CNC(=O)c1cccc(-c2cccc3cc(Cc4cc(F)cc(C(F)(F)F)c4)sc23)c1,169 to 170
5,C=CCN(CC=C)c1nc(NC(=O)c2ccc(Cl)cc2Cl)n2oc(=O)nc2n1,163 to 164
6,CCCCCCOc1cc(C)ccc1C(=O)c1cccc(C(=O)O)c1,118
7,COC1(C)CCc2c(C)c(OCc3ccccc3)c(C)c(C)c2O1 (centres undefined),70 to 72.5
8,CC1(C)C=C(c2ncccn2)c2cc(C#N)ccc2O1,108 to 110
9,O=C(O)CCN1C(=O)c2ccc([N+](=O)[O-])cc2C1=O,206 to 208
10,O=c1[nH]c2cc(Cl)cc(Cl)c2c(=O)n1Cc1ccc(F)cc1,301 to 304
11,CCOC(=O)CCc1ccc(CCN2CCN(S(=O)(=O)c3ccccc3)CC2)cc1,114 to 116
12,CCOC(=O)CC(NC(=O)c1ccc(OC)cc1)C(=O)c1ccco1 (centres undefined),104 to 106
13,Cc1[nH]c2ccccc2c1C(=O)CCCl,137 to 140
14,CS(=O)(=O)c1ccc(-n2nc(C(F)(F)F)cc2-c2ccc(-c3cnco3)cc2)cc1,178 to 180
15,CCCc1c(C(=O)O)c(=O)cc(-c2ccc(Cl)cc2)n1C,184 to 187
16,O=C1CCOc2ccc(OCc3ccc4ccc(Cl)cc4n3)cc21,163 to 164
17,CC(=O)Oc1cc(OCC(O)c2ccc3c(c2)C(C)(C)CCC3(C)C)ccc1C(=O)O (centres undefined),119 to 120
18,Cc1ccc2c(c1)S(=O)(=O)N=C(NC(C)C)N2,266 to 268
19,CC1C=C(c2nc3cccc(F)c3s2)C=CC1=N (centres undefined),175 to 177
20,CCCc1nc2c(N)nc3c(c2n1CCOCCS(C)(=O)=O)CCCC3,153 to 155
21,COc1ccc(NN=C(Sc2ccc(C)cc2C)C(C)=O)cc1,109 to 111
22,CC(=O)Oc1c(-c2ccc(=O)[nH]n2)cc(Br)c(C)c1Br,220
23,COc1ccc2cccnc2c1N,114 to 115
24,CCCc1nc2c(N)nc3cc(-c4ccccc4C(N)=O)ccc3c2s1,274 to 276
25,CCOC(=O)c1nn(-c2cccc(Cl)c2)c(=O)c2c1c1ccc(Cl)cc1n2C,236 to 238

row,Structure (SMILES),melting point [°C]
1,Cn1c(CNCC(C)(C)C)cc2cc(NC(=O)c3ccc(C#CC4(O)CC4)cc3)ccc21,173
2,O=C1CNC(=O)C(Cc2cccc(NCc3ccccc3)c2)N1 (centres undefined),160 to 161
3,Cc1cccc(C(=O)Cc2ccnc(F)c2)c1,66 to 67
4,Cc1cc(C)c2ccc(NC(=O)Nc3ccccc3CCc3cc(C(C)(C)C)c(O)c(C(C)(C)C)c3)nc2n1,235 to 237
5,CCCCN(CCCC)c1ccc(C=Cc2ccc(C=CC3=C(C#N)C(=C(C#N)C#N)OC3(C)C(F)(F)F)cc2)c(OC)c1 (centres undefined),175 to 177
6,FC(F)(F)c1nc2ccc(Cn3ccnc3)cc2n1CC1CCCCC1,165
7,CN(C)C(=O)C1(CCC#N)c2ccccc2-c2ccccc21,109 to 110
8,O=C(c1ccc(F)cc1)C1CCN(CCCn2c(=O)[nH]c(=O)c3ccccc32)CC1,193
9,CCS(=O)(=O)c1cc(C(=O)NCC2CCCN2CC2=CCCC2)c(OC)cc1N (centres undefined),125 to 126
10,O=C(Nc1cccnn1)N1CCN(c2cc(-c3ccccc3F)ncn2)CC1,207 to 208
11,CC(c1ccc(OCCO)cc1)(c1ccc(OCCO)cc1)c1ccc(OCCO)cc1,78 to 81
12,CCCOc1ccc(S(=O)(=O)N2CCNCC2)cc1-c1nc2c(CCC)nn(C)c2c(=O)[nH]1,185 to 186
13,CCN(CC)c1ccc(NC(=O)N(C[C@H]2CC[C@H](CN(C(=O)Nc3ccc(N(CC)CC)cc3)C3CCCCCC3)CC2)C2CCCCCC2)cc1,170 to 175
14,O=c1cc(CN2CCOCC2)oc(-c2ccc(O)cc2)c1,162 to 164
15,COc1ccc(Cl)cc1-n1c(N(C)C)nc2cc(C(F)(F)F)ccc21,230 to 234
16,Cn1cc(-c2ccccc2)c(=O)c(-c2ccc(F)cc2Cl)c1,190 to 192
17,O=C1N(CC2CCCCC2)c2ccccc2C12COc1cc3c(cc12)OCO3 (centres undefined),153 to 154
18,COC(=O)c1cccc(-c2nc(COc3ccc(C=O)cc3OC)c(C)o2)c1,168 to 169
19,CC(=O)OCC1OC(n2c(Cl)nc3cc(Br)c(Br)cc32)C(OC(C)=O)C1OC(C)=O (centres undefined),140 to 142
20,Cc1csc2c(Br)c(C=O)sc12,127 to 129
21,CCOC(=O)c1cnoc1-c1ccc(F)c(F)c1,64 to 65
22,Cc1ccc([N+](=O)[O-])cc1C=CC#N,113
23,CN(C)C=NS(=O)(=O)c1ccc(Br)cc1,141 to 143
24,CCCOc1ccnc2[nH]cc(C(C)=O)c12,> 210
